# Assay results: paper PMC9386018, “A lymphatic-absorbed multi-targeted kinase inhibitor for myelofibrosis therapy” (Nature Communications, 2022)
# Test system: MPL^W515L mouse model of myelofibrosis
# Test: MPL^W515L MF mouse model: immune cell numbers in spleen
# Format: in vivo
# Conditions: MPL^W515L mice, oral 400 mg kg^−1 daily, 28 d
# Protocol: The human megakaryoblastic cell line, SET-2 (ATCC), was maintained in RPMI 1640 supplemented with 20% FBS and incubated for 16 h at 10^6 cells mL^−1 with LP-182 or vehicle (DMSO; dimethyl sulfoxide), then washed in ice-cold PBS, and collected for flow cytometry analysis. Single-cell suspensions of mouse spleen were prepared from MPL^W515L MF mice (below) in RPMI 1640 supplemented with 5% FCS. Red blood cells were lysed by ammonium chloride-mediated red cell lysis (RCL) buffer and passed through a nylon mesh, and then cells were counted. For intracellular phospho-protein staining, SET-2 or spleen cells were fixed and then permeabilized using BD Phospho-flow fixation buffer and Perm-Buffer III (BD biosciences) according to the manufacturer’s protocol. Intracellular phospho-protein staining was performed using fluorochrome-conjugated antibodies, pAKT (pS473)-Alexa Fluor 647 (MB89-61) or pERK1/2 (pT202/pY204)-Alexa Fluor 647 (20 A). […] Flow cytometry was performed on a FACS Fortessa (Becton, Dickinson and Co.) using FACSDiVa software, and data analyzed using FlowJo software (Tree Star). […]
# Generation of the MPL^W515L mutant MF mouse model was similar to previously described methods. […] Development of MF was evaluated by spleen volumes using MRI beginning ~14 d following bone marrow transplantation (BMT) as outlined below, continuing weekly until end of the study. […]
smiles,measurement,value
"O=C(NOCCOCCOCCOCCC(=O)N1CCN(c2cnc3ccc(-c4cnc(Cl)c(NS(=O)(=O)c5ccc(F)cc5)c4)cc3n2)CC1)c1ccc(F)c(F)c1Nc1ccc(I)cc1F [LP-182, N-(2-(2-(2-(3-(4-(7-(6-chloro-5-((4-fluorophenyl)sulfonamido)pyridin-3-yl)quinoxalin-2-yl)piperazin-1-yl)-3-oxopropoxy)ethoxy)ethoxy)ethoxy)-3,4-difluoro-2-((2-fluoro-4-iodophenyl)amino)benzamide]",cell numbers of neutrophils (Neu) and megakaryocytes (MK) in the spleen,decreased cell numbers
